Source: US5847193A, “Labelled compound” (priority 1995, dated 1998)

What was measured:
human or rat gliomacyte = details: cited from earlier work
rat glioma = assay: Uptake of ^11 C-labelled L-DABA into rat glioma cells in culture; assay type: cell-based; details: medium with amino acid content close to the biological one, control phosphate-buffered saline, FIG. 7
Procedure: Biological applicability of the ^11 C-labelled L-DABA obtained in Example 3 was evaluated. The relationship between concentration of the L-DABA added to culture medium of rat glioma and uptake of radioactivity into the glioma cells in a given duration was investigated in a medium having an amino acid content close to the biological one, and for control, in a physiological saline buffered with phosphoric acid.

[1] = Sterility and exothermic substance check of the filtered ^11 C-labelled glutamic acid product; details: after sterilized 0.2 μm filter
Procedure: NaOH of 2.5M was added to a reaction solution containing the γ-cyano-α-aminobutyric acid of which cyano group carbon being labelled with positron nuclide ^11 C, as obtained in Example 6, and temperature of the mixture was raised to 135° C. After the lapse of 15 minutes, the reaction solution was mixed with 8 ml 50 mM NaH2 PO4, and the resultant mixture was passed through an anion exchange resin (800 mg AGI-x8 200-400 mesh hydroxide form). After washing with 50 mM NaH2 PO4 in an amount of 6 ml, the reaction product was eluted with 150 mM NaH2 PO4 (pH adjusted to 2.8 with phosphoric acid), and the elute was received in a receptacle containing 150 μl 8.5% phosphoric acid. The contents were passed through a sterilized filter having a pore diameter of 0.2 μm for collection in bial.

SMILES	incorporation into gliomacyte (human or rat gliomacyte)	also measured
NCCC(N)C(=O)O (stereo not drawn) [2,4-Diaminobutyric acid (DABA), 2,4-Diaminobutyric acid]	found to be incorporated into human or rat gliomacyte	
N[C@@H](CCC(=O)O)C(=O)O [L-glutamic acid]	found to be incorporated into human or rat gliomacyte	
NC(=O)CC[C@H](N)C(=O)O [L-glutamine]	found to be incorporated into human or rat gliomacyte	
N[11CH2]C[C@H](N)C(=O)O [^11 C-labelled L-DABA, L-2,4-diaminobutyric acid (L-DABA) labelled with ^11 C]		uptake of radioactivity into the glioma cells (rat glioma): dependent on the concentration of it in culture medium
N[C@@H](CC[11C](=O)O)C(=O)O [^11 C-labelled glutamic acid]		exothermic substance [1]: no exothermic substance was detected; sterility of product [1]: germ-free
